{
  "source": "patent US8624034B2",
  "about": "“Fluoro-pyridinone derivatives useful as antibacterial agents” (Pfizer Inc., priority 2011, dated 2014)",
  "key": {"[1]": {"molecular_target": "T1, Pseudomonas aeruginosa LpxC enzyme (Pseudomonas aeruginosa, UniProt P47205)", "T1 construct": "made in house; host or cells: E. coli", "T1 sequence (P47205 1-303)": "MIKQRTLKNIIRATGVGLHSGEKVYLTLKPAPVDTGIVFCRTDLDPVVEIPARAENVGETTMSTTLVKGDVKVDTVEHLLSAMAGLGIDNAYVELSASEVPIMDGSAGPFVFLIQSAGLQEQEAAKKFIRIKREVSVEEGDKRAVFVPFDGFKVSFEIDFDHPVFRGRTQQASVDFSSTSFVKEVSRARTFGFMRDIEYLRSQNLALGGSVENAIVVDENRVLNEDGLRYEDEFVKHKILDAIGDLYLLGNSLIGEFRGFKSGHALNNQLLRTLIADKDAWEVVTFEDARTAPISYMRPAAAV", "experiment": "IC50 assay, LpxC enzyme from P. aeruginosa (PA LpxC enzyme IC50)", "format": "biochemical", "settings": "LpxC enzyme 0.1 nM, 25° C., 1 hour", "in_short": "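The LpxC reaction ran 1 hour and was stopped with HCl. Substrate-to-product conversion was measured by RapidFire mass spectrometry, and IC50 values were calculated from percent conversion relative to a no-enzyme control.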"}, "[2]": {"system": "Acinetobacter baumannii/haemolyticus, multidrug-resistant clinical isolate (AB-3167)", "experiment": "MIC determination, AB-3167", "format": "cell-based", "settings": "Table 2, lower of duplicate values", "in_short": "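Broth dilution MIC per CLSI M7-A8, 2-fold drug series, overnight incubation, lowest concentration visibly inhibiting growth against drug-free control. Run in duplicate, lower value reported; duplicates differing >2-fold repeated; QC strains and reference compounds required in range.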"}, "[3]": {"system": "Escherichia coli EC-1: VOGEL, mouse virulent", "experiment": "MIC determination, EC-1", "format": "cell-based", "settings": "Escherichia coli, read-out: EC-1 (MIC), Table 2, lower of duplicate values", "in_short": "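MIC against mouse-virulent E. coli EC-1 (VOGEL) was determined by CLSI M7-A8 broth dilution with 2-fold drug increments and overnight incubation. The MIC is the lowest concentration with no visible growth versus drug-free control. Tests were run in duplicate and the lower value reported if within 2-fold, with QC organisms and reference drugs in each run.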"}, "[4]": {"system": "Pseudomonas aeruginosa UI-18: wild-type (PA-7)", "experiment": "MIC determination, PA-7", "format": "cell-based", "settings": "Table 2, lower of duplicate values", "in_short": "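P. aeruginosa UI-18 (wild-type) tested by CLSI broth dilution (M7-A8), 2-fold compound series incubated overnight. MIC read visually as lowest concentration preventing growth versus drug-free control; duplicates within 2-fold, lower value reported, with QC organisms and reference compounds in range.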"}},
  "note": "Like-named read-outs stand apart in the source and are kept apart here.",
  "data": [
    {"smiles": "CSc1ccc(-c2cc(=O)n(CC[C@](C)(C(=O)NO)S(C)(=O)=O)cc2F)cc1", "note": "[Example 9, (2R)-4-{5-Fluoro-4-[4-(methylthio)phenyl]-2-oxopyridin-1(2H)-yl}-N-hydroxy-2-methyl-2-(methylsulfonyl)butanamide]", "values": [
      {"measurement": "IC50", "setting": "[1]; PA:IC50, Table 2", "value": 0.51, "unit": "nM"},
      {"measurement": "MIC", "setting": "[2]", "value": "> 64", "unit": "µg/mL"},
      {"measurement": "MIC", "setting": "[3]", "value": 0.25, "unit": "µg/mL"},
      {"measurement": "MIC", "setting": "[4]", "value": 0.5, "unit": "µg/mL"}
    ]},
    {"smiles": "C[C@@](CCn1cc(F)c(-c2ccc(-n3nccn3)c(F)c2)cc1=O)(C(=O)NO)S(C)(=O)=O", "note": "[Example 36, (2R)-4-{5-Fluoro-4-[3-fluoro-4-(2H-1,2,3-triazol-2-yl)phenyl]-2-oxopyridin-1(2H)-yl}-N-hydroxy-2-methyl-2-(methylsulfonyl)butanamide]", "values": [
      {"measurement": "IC50", "setting": "[1]; Table 2, read-out: PA:IC50", "value": 0.398, "unit": "nM"},
      {"measurement": "MIC", "setting": "[2]", "value": "> 64", "unit": "µg/mL"},
      {"measurement": "MIC", "setting": "[3]", "value": 0.5, "unit": "µg/mL"},
      {"measurement": "MIC", "setting": "[4]", "value": 1, "unit": "µg/mL"}
    ]},
    {"smiles": "C[C@@](CCn1cc(F)c(-c2ccc(F)c(F)c2)cc1=O)(C(=O)NO)S(C)(=O)=O", "note": "[Example 6, (2R)-4-[4-(3,4-Difluorophenyl)-5-fluoro-2-oxopyridin-1(2H)-yl]-N-hydroxy-2-methyl-2-(methylsulfonyl)butanamide]", "values": [
      {"measurement": "IC50", "setting": "[1]; Table 2, read-out: PA:IC50", "value": 0.833, "unit": "nM"},
      {"measurement": "MIC", "setting": "[2]", "value": "> 64", "unit": "µg/mL"},
      {"measurement": "MIC", "setting": "[3]", "value": 1, "unit": "µg/mL"},
      {"measurement": "MIC", "setting": "[4]", "value": 0.5, "unit": "µg/mL"}
    ]},
    {"smiles": "C[C@@](CCn1cc(F)c(-c2ccc(-c3ncccn3)cc2)cc1=O)(C(=O)NO)S(C)(=O)=O", "note": "[Example 20, (2R)-4-[5-Fluoro-2-oxo-4-(4-pyrimidin-2-ylphenyl)pyridin-1(2H)-yl]-N-hydroxy-2-methyl-2-(methylsulfonyl)butanamide]", "values": [
      {"measurement": "IC50", "setting": "[1]; Table 2, read-out: PA:IC50", "value": 0.945, "unit": "nM"},
      {"measurement": "MIC", "setting": "[2]", "value": "> 64", "unit": "µg/mL"},
      {"measurement": "MIC", "setting": "[3]", "value": 0.125, "unit": "µg/mL"},
      {"measurement": "MIC", "setting": "[4]", "value": 1, "unit": "µg/mL"}
    ]},
    {"smiles": "COc1ccc(-c2cc(=O)n(CC[C@](C)(C(=O)NO)S(C)(=O)=O)cc2F)c(F)c1", "note": "[Example 27, (2R)-4-[5-Fluoro-4-(2-fluoro-4-methoxyphenyl)-2-oxopyridin-1(2H)-yl]-N-hydroxy-2-methyl-2-(methylsulfonyl)butanamide]", "values": [
      {"measurement": "IC50", "setting": "[1]; Table 2, read-out: PA:IC50", "value": 0.0498, "unit": "nM"},
      {"measurement": "MIC", "setting": "[2]", "value": "> 64", "unit": "µg/mL"},
      {"measurement": "MIC", "setting": "[3]", "value": 0.25, "unit": "µg/mL"},
      {"measurement": "MIC", "setting": "[4]", "value": 0.5, "unit": "µg/mL"}
    ]},
    {"smiles": "C[C@@](CCn1cc(F)c(-c2ccc(-c3ncco3)cc2)cc1=O)(C(=O)NO)S(C)(=O)=O", "note": "[Example 42, (2R)-4-[5-Fluoro-4-[4-(1,3-oxazol-2-yl)phenyl]-2-oxopyridin-1(2H)-yl]-N-hydroxy-2-methyl-2-(methylsulfonyl)butanamide]", "values": [
      {"measurement": "IC50", "setting": "[1]; Table 2, read-out: PA:IC50", "value": 0.328, "unit": "nM"},
      {"measurement": "MIC", "setting": "[2]", "value": "> 64", "unit": "µg/mL"},
      {"measurement": "MIC", "setting": "[3]", "value": 0.25, "unit": "µg/mL"},
      {"measurement": "MIC", "setting": "[4]", "value": 1, "unit": "µg/mL"}
    ]}
  ]
}
